In patent publication US6875760B2 (Novo Nordisk A/S, priority 1999, dated 2005):

Biological target: T1, human glucagon receptor (Homo sapiens, UniProt P47871)
T1 construct: expressed in transfected cells; host or cells: BHK (baby hamster kidney) cells
Assay: Glucagon Binding Assay (III)
Conditions: BHK cell membranes, WGA SPA beads, 125I-glucagon; read-out: Glu Bd Assay (III) IC50
Outline: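 Non-specific binding was set with 500 nM glucagon in this SPA-type binding assay using WGA beads. The receptor source was a membrane preparation, kept on ice or at 4 °C, from BHK cells transfected with the human receptor. Scintillation counts were taken after 4 hours of shaking and 8–48 hours of settling.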

T1 sequence (P47871 26-477): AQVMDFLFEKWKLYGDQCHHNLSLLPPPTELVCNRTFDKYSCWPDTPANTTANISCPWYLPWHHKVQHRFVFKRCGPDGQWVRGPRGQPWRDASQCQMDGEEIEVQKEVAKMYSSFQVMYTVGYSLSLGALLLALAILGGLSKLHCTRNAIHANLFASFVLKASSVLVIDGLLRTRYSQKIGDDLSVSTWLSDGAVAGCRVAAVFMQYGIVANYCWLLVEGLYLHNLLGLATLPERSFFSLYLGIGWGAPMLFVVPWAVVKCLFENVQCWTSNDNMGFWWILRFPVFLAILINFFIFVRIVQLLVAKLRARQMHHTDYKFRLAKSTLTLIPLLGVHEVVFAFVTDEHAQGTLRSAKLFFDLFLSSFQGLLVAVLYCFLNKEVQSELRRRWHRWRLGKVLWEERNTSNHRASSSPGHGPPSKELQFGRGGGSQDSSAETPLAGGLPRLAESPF

| Compound | IC50 [nM] |
| --- | --- |
| CS(=O)(=O)c1ccc(F)c(NC(=O)N(Cc2ccc(C(=O)Nc3nn[nH]n3)cc2)c2ccc(C3CCCCC3)cc2)c1 [Example 260, 4-[1-(4-Cyclohexylphenyl)-3-(2-fluoro-5-methylsulfonylphenyl)ureidomethyl]-N-(2H-tetrazol-5-yl)benzamide] | 149 |
| Cc1ccc(S(C)(=O)=O)cc1NC(=O)N(Cc1ccc(C(=O)Nc2nn[nH]n2)cc1)c1ccc(C2CCCCC2)cc1 [Example 261, 4-[1-(4-Cyclohexylphenyl)-3-(5-methylsulfonyl-2-methylphenyl)ureidomethyl]-N-(2H-tetrazol-5-yl)benzamide] | 302 |
| O=C(Nc1nn[nH]n1)c1ccc(CN(C(=O)Nc2cc(F)cc(C(F)(F)F)c2)c2ccc(C3CCCCC3)cc2)cc1 [Example 262, 4-[1-(4-Cyclohexylphenyl)-3-(3-fluoro-5-trifluoromethylphenyl)ureidomethyl]-N-(2H-tetrazol-5-yl)benzamide] | 18 |
| CC(C)(C)c1ccc(N(Cc2ccc(C(=O)Nc3nn[nH]n3)cc2)C(=O)Nc2cc(Br)cc(C(F)(F)F)c2)cc1 [Example 263, 4-[3-(3-Bromo-5-trifluoromethylphenyl)-1-(4-tert-butylphenyl)ureidomethyl]-N-(2H-tetrazol-5-yl)benzamide] | 16 |
| O=C(Nc1nn[nH]n1)c1ccc(CN(C(=O)Nc2cc(Br)cc(C(F)(F)F)c2)c2ccc(C3CCCCC3)cc2)cc1 [Example 264, 4-[3-(3-Bromo-5-trifluoromethylphenyl)-1-(4-cyclohexylphenyl)ureidomethyl]-N-(2H-tetrazol-5-yl)benzamide] | 9 |
| CCN(c1ccccc1)S(=O)(=O)c1cccc(NC(=O)N(Cc2ccc(C(=O)NCCC(=O)O)cc2)c2ccc(C3CCCCC3)cc2)c1 [Example 265, 3-(4-{1-(4-Cyclohexylphenyl)-3-[3-(ethylphenylsulfamoyl)phenyl]ureidomethyl}benzoylamino)propionic acid] | 30 |
| CN(c1ccccc1)S(=O)(=O)c1cccc(NC(=O)N(Cc2ccc(C(=O)Nc3nn[nH]n3)cc2)c2ccc(C3CCCCC3)cc2)c1 [Example 266, 4-{1-(4-Cyclohexylphenyl)-3-[3-(methylphenylsulfamoyl)phenyl]ureidomethyl}-N-(2H-tetrazol-5-yl)benzamide] | 15 |
| O=C(Nc1nn[nH]n1)c1ccc(CN(C(=O)Nc2cccc(S(=O)(=O)N3CCc4ccccc43)c2)c2ccc(C3CCCCC3)cc2)cc1 [Example 267, 4-{1-(4-Cyclohexylphenyl)-3-[3-(2,3-dihydroindole-1-sulfonyl)phenyl]ureidomethyl}-N-(2H-tetrazol-5-yl)benzamide] | 86 |
| O=C(Nc1nn[nH]n1)c1ccc(CN(C(=O)Nc2cc(C(F)(F)F)cc(C(F)(F)F)c2)c2ccc(C3=CCCCC3)cc2)cc1 [Example 268, 4-[3-(3,5-Bis-trifluoromethylphenyl)-1-(4-cyclohex-1-enylphenyl)ureidomethyl]-N-(2H-tetrazol-5-yl)benzamide] | 21 |
| O=C(Nc1nn[nH]n1)c1ccc(CN(C(=O)Nc2cc(Br)cc(C(F)(F)F)c2)c2ccc(C3=CCCCC3)cc2)cc1 [Example 269, 4-[3-(3-Bromo-5-trifluoromethylphenyl)-1-(4-cyclohex-1-enylphenyl)ureidomethyl]-N-(2H-tetrazol-5-yl)benzamide] | 38 |
| O=C(Nc1nn[nH]n1)c1ccc(CN(C(=O)NCc2cc(F)cc(C(F)(F)F)c2)c2ccc(C3CCCCC3)cc2)cc1 [Example 270, 4-[1-(4-Cyclohexylphenyl)-3-(3-fluoro-5-trifluoromethylbenzyl)ureidomethyl]-N-(2H-tetrazol-5-yl)benzamide] | 64 |
| O=C(Nc1nn[nH]n1)c1ccc(CN(C(=O)Nc2cc(C(F)(F)F)cc(C(F)(F)F)c2)c2ccc(C3CCCCC3)cc2)cc1 [Example 271, 4-[3-(3,5-Bis-trifluoromethylphenyl)-1-(4-cyclohexylphenyl)ureidomethyl]-N-(2H-tetrazol-5-yl)benzamide] | 9 |
| CC(=O)c1ccc(NC(=O)N(Cc2ccc(C(=O)Nc3nn[nH]n3)cc2)c2ccc(C3CCCCC3)cc2)cc1 [Example 272, 4-[3-(4-Acetylphenyl)-1-(4-cyclohexylphenyl)ureidomethyl]-N-(2H-tetrazol-5-yl)benzamide] | 192 |
| CC(=O)c1ccc(NC(=O)N(Cc2ccc(C(=O)Nc3nn[nH]n3)cc2)C2CCC(C(C)(C)C)CC2)cc1 (stereo not shown) [Example 273, 4-[3-(4-Acetylphenyl)-1-(4-tert-butylcyclohexyl)ureidomethyl]-N-(2H-tetrazol-5-yl)benzamide] | 319 |
| CC(C)(C)C1CCC(N(Cc2ccc(C(=O)Nc3nn[nH]n3)cc2)C(=O)Nc2cccc(C#N)c2)CC1 (stereo not shown) [Example 274, 4-[1-(4-tert-Butylcyclohexyl)-3-(3-cyanophenyl)ureidomethyl]-N-(2H-tetrazol-5-yl)benzamide] | 94 |
| CN(C)S(=O)(=O)c1cccc(NC(=O)N(Cc2ccc(C(=O)Nc3nn[nH]n3)cc2)c2ccc(C3CCCCC3)cc2)c1 [Example 275, 4-[1-(4-Cyclohexylphenyl)-3-(3-dimethylsulfamoylphenyl)ureidomethyl]-N-(2H-tetrazol-5-yl)benzamide] | 101 |
| CN(C)S(=O)(=O)c1cccc(NC(=O)N(Cc2ccc(C(=O)Nc3nn[nH]n3)cc2)c2ccc(C(C)(C)C)cc2)c1 [Example 276, 4-[1-(4-tert-Butylphenyl)-3-(3-dimethylsulfamoylphenyl)ureidomethyl]-N-(2H-tetrazol-5-yl)benzamide] | 313 |

| Compound | IC50 [nM] |
| --- | --- |
| CC(C)(C)c1ccc(N(Cc2ccc(C(=O)Nc3nn[nH]n3)cc2)C(=O)Nc2cccc(S(=O)(=O)N3CCCCC3)c2)cc1 [Example 277] | 411 |
| O=C(Nc1nn[nH]n1)c1ccc(CN(C(=O)Nc2cccc(SC(F)(F)F)c2)c2ccc(C3CCCCC3)cc2)cc1 [Example 278, 4-[1-(4-Cyclohexylphenyl)-3-(3-trifluoromethylsulfanylphenyl)ureidomethyl]-N-(2H-tetrazol-5-yl)benzamide] | 88 |
| O=C(Nc1nn[nH]n1)c1ccc(CN(C(=O)Nc2ccccc2)c2ccc(C3CCCCC3)cc2)cc1 [Example 279, 4-[1-(4-Cyclohexylphenyl)-3-phenylureidomethyl]-N-(2H-tetrazol-5-yl)benzamide] | 84 |
| CCCCc1ccc(N(Cc2ccc(C(=O)Nc3nn[nH]n3)cc2)C(=O)Nc2ccccc2)cc1 [Example 280, 4-[1-(4-Butylphenyl)-3-phenylureidomethyl]-N-(2H-tetrazol-5-yl)benzamide] | 252 |
| CCCCc1ccc(N(Cc2ccc(C(=O)Nc3nn[nH]n3)cc2)C(=O)Nc2cccc(C#N)c2)cc1 [Example 281, 4-[1-(4-Butylphenyl)-3-(3-cyanophenyl)ureidomethyl]-N-(2H-tetrazol-5-yl)benzamide] | 185 |
| CC(=O)c1cccc(NC(=O)N(Cc2ccc(C(=O)Nc3nn[nH]n3)cc2)c2ccc(C3CCCCC3)cc2)c1 [Example 283, 4-[3-(3-Acetylphenyl)-1-(4-cyclohexylphenyl)ureidomethyl]-N-(2H-tetrazol-5-yl)benzamide] | 57 |
| O=C(Nc1nn[nH]n1)c1ccc(CN(C(=O)Nc2ccc(Cl)c(C(F)(F)F)c2)c2ccc(OC(F)(F)F)cc2)cc1 [Example 284, 4-[3-(4-Chloro-3-trifluoromethylphenyl)-1-(4-trifluoromethoxyphenyl)ureidomethyl]-N-(2H-tetrazol-5-yl)benzamide] | 54 |
| O=C(Nc1nn[nH]n1)c1ccc(CN(C(=O)Nc2cccc([N+](=O)[O-])c2)c2ccc(OC(F)(F)F)cc2)cc1 [Example 285] | 151 |
| O=C(Nc1nn[nH]n1)c1ccc(CN(C(=O)Nc2cccc([N+](=O)[O-])c2)c2ccc(C3CCCCC3)cc2)cc1 [Example 286, 4-[1-(4-Cyclohexylphenyl)-3-(3-nitrophenyl)ureidomethyl]-N-(2H-tetrazol-5-yl)benzamide] | 26 |
| CC(C)(C)c1ccc(N(Cc2ccc(C(=O)Nc3nn[nH]n3)cc2)C(=O)Nc2cccc([N+](=O)[O-])c2)cc1 [Example 287, 4-[1-(4-tert-Butylphenyl)-3-(3-nitrophenyl)ureidomethyl]-N-(2H-tetrazol-5-yl)benzamide] | 52 |
| CCCCc1ccc(N(Cc2ccc(C(=O)Nc3nn[nH]n3)cc2)C(=O)Nc2cccc([N+](=O)[O-])c2)cc1 [Example 288, 4-[1-(4-Butylphenyl)-3-(3-nitrophenyl)ureidomethyl]-N-(2H-tetrazol-5-yl)benzamide] | 75 |
| CCSc1cccc(NC(=O)N(Cc2ccc(C(=O)Nc3nn[nH]n3)cc2)c2ccc(C3CCCCC3)cc2)c1 [Example 289, 4-[1-(4-Cyclohexylphenyl)-3-(3-ethylsulfanylphenyl)ureidomethyl]-N-(2H-tetrazol-5-yl)benzamide] | 27 |
| CCC(C)c1ccc(N(Cc2ccc(C(=O)Nc3nn[nH]n3)cc2)C(=O)Nc2cc(C(=O)OC)cc(C(=O)OC)c2)cc1 (stereo not shown) [Example 290] | 101 |
| O=C(Nc1nn[nH]n1)c1ccc(CN(C(=O)Nc2ccc(OC(F)(F)F)cc2)c2ccc(C3CCCCC3)cc2)cc1 [Example 291, 4-[1-(4-Cyclohexylphenyl)-3-(4-trifluoromethoxyphenyl)ureidomethyl]-N-(2H-tetrazol-5-yl)benzamide] | 42 |
| CCCCc1ccc(N(Cc2ccc(C(=O)Nc3nn[nH]n3)cc2)C(=O)Nc2ccc(OC(F)(F)F)cc2)cc1 [Example 292, 4-[1-(4-Butylphenyl)-3-(4-trifluoromethoxyphenyl)ureidomethyl]-N-(2H-tetrazol-5-yl)benzamide] | 106 |
| CSc1cccc(NC(=O)N(Cc2ccc(C(=O)Nc3nn[nH]n3)cc2)c2ccc(C(C)(C)C)cc2)c1 [Example 293, 4-[1-(4-tert-Butylphenyl)-3-(3-methylsulfanylphenyl)ureidomethyl]-N-(2H-tetrazol-5-yl)benzamide] | 45 |
| CC(C)(C)c1ccc(N(Cc2ccc(C(=O)Nc3nn[nH]n3)cc2)C(=O)Nc2cccc(C(F)(F)F)c2)cc1 [Example 294, 4-[1-(4-tert-Butylphenyl)-3-(3-trifluoromethylphenyl)ureidomethyl]-N-(2H-tetrazol-5-yl)benzamide] | 50 |
